Experimental data published in ChEMBL document CHEMBL5465560, “Selectivity Literature for EUbOPEN Chemogenomic Library” (2024).

Key:
[1] = target: Serine/threonine-protein kinase MARK1 (Homo sapiens) (UniProt Q9P0L2); experiment: Selectivity interaction (KinomeScan (DiscoverX)) EUB0000666a MARK1; conditions: at 10 µM
[2] = target: T1, Serine/threonine-protein kinase TAO2 (Homo sapiens) (UniProt Q9UL54); experiment: Selectivity interaction (KinomeScan (DiscoverX)) EUB0000666a TAOK2; conditions: at 10 µM
T1 sequence (whole entry): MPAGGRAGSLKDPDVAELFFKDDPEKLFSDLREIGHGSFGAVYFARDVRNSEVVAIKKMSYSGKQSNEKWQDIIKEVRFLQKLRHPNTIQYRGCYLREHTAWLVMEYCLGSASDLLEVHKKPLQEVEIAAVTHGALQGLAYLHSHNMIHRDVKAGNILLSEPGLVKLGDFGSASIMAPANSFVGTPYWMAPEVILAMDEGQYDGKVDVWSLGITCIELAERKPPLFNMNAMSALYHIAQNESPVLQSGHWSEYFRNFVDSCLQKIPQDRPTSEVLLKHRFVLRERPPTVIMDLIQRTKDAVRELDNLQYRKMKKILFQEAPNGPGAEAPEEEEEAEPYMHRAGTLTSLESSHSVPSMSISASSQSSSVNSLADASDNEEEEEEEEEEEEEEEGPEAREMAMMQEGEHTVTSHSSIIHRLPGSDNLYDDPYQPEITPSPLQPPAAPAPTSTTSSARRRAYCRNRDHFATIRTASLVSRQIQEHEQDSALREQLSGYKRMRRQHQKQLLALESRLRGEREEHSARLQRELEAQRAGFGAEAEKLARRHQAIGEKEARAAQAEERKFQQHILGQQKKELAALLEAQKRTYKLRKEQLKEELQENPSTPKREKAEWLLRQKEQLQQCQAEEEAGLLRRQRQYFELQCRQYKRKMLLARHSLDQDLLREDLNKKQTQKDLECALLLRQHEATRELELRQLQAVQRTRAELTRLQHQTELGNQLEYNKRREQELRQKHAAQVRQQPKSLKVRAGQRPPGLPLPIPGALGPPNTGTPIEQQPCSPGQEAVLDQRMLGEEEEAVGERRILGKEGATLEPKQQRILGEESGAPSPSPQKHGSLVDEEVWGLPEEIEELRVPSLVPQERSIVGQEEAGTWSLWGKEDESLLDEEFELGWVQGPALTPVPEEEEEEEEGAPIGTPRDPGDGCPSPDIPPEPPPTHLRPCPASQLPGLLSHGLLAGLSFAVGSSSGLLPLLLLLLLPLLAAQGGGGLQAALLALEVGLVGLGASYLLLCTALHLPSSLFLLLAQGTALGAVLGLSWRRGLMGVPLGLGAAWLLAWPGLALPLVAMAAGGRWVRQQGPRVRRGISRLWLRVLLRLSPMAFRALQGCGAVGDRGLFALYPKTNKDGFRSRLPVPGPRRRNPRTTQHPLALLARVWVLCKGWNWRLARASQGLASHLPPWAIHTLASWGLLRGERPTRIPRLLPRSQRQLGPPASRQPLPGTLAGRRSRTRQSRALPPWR

[3] = target: NT-3 growth factor receptor (Homo sapiens, UniProt Q16288); experiment: Selectivity interaction (Ambit KINOMEscan and KiNATiv profiling in Jurkat cells) EUB0000090b NTRK3; type: cell-based; conditions: at 1 µM
Sequence of NT-3 growth factor receptor (Q16288 32-839 limits assumed): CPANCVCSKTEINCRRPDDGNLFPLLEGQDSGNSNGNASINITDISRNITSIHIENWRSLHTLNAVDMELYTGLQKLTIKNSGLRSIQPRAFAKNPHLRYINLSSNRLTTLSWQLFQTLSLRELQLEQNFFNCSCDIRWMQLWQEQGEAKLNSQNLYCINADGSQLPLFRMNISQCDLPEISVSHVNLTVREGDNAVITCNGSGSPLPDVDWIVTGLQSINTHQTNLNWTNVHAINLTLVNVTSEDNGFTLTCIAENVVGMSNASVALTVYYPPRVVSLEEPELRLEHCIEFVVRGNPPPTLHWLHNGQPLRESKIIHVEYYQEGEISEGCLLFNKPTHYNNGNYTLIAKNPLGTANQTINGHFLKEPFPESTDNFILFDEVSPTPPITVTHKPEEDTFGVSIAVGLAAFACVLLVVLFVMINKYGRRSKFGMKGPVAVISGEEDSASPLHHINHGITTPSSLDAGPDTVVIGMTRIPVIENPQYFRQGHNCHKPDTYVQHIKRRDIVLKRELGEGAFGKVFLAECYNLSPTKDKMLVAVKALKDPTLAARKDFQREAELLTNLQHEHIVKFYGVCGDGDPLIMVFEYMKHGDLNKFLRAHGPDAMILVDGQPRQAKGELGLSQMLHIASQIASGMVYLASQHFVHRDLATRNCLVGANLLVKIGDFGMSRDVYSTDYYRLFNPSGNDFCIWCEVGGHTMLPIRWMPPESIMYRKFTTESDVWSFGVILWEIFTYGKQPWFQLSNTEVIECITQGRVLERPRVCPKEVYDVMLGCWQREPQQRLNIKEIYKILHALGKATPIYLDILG

[4] = target: T2, Serine/threonine-protein kinase TNNI3K (Homo sapiens) (UniProt Q59H18); experiment: Selectivity interaction (Ambit KINOMEscan and KiNATiv profiling in Jurkat cells) EUB0000090b TNNI3K; type: cell-based; conditions: at 1 µM
T2 sequence (whole entry): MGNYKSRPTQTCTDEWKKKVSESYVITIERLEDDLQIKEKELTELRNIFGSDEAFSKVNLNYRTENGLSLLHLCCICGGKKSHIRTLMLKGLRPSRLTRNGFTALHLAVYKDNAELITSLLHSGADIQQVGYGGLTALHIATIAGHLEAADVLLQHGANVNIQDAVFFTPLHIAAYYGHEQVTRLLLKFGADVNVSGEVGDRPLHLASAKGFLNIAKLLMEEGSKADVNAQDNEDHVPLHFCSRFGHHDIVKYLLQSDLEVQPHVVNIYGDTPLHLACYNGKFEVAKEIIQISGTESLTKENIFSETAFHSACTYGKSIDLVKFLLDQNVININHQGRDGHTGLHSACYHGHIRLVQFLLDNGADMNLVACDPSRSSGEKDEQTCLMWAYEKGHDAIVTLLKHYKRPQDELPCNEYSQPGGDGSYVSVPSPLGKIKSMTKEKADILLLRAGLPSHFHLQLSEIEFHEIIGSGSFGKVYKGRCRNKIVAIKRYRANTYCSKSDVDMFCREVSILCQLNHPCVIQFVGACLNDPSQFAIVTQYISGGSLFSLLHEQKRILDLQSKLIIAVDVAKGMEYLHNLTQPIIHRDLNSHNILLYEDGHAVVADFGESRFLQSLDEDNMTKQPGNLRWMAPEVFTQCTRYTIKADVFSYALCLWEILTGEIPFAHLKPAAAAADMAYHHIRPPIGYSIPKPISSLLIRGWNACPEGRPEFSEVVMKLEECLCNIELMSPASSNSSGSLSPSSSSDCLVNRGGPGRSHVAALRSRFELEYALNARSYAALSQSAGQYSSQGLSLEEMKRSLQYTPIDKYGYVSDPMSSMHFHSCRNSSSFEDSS

[5] = target: Serine/threonine-protein kinase PLK1 (Homo sapiens, UniProt P53350); experiment: Selectivity interaction (KinomeScan (DiscoverX)) EUB0000655a PLK1; conditions: at 10 µM
Sequence of Serine/threonine-protein kinase PLK1 (P53350 whole entry): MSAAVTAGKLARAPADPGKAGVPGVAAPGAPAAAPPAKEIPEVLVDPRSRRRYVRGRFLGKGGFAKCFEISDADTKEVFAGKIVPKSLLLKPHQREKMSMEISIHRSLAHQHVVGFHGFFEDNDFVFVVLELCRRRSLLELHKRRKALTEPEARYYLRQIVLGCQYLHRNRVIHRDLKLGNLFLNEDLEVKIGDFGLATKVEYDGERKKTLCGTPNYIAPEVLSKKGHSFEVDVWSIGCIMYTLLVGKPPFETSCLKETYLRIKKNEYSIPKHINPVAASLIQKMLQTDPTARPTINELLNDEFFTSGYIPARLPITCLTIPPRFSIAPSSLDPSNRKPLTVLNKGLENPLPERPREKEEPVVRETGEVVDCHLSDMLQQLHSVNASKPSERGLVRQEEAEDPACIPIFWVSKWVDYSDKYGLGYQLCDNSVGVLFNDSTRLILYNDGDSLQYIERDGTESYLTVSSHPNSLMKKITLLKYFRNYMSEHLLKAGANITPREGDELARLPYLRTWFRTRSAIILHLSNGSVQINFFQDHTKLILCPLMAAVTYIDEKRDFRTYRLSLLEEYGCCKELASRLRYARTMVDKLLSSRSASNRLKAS

[6] = target: T3, Calcium/calmodulin-dependent protein kinase type IV (Homo sapiens) (UniProt Q16566); experiment: Selectivity interaction (KinomeScan (DiscoverX)) EUB0000045b CAMK4
T3 sequence (whole entry): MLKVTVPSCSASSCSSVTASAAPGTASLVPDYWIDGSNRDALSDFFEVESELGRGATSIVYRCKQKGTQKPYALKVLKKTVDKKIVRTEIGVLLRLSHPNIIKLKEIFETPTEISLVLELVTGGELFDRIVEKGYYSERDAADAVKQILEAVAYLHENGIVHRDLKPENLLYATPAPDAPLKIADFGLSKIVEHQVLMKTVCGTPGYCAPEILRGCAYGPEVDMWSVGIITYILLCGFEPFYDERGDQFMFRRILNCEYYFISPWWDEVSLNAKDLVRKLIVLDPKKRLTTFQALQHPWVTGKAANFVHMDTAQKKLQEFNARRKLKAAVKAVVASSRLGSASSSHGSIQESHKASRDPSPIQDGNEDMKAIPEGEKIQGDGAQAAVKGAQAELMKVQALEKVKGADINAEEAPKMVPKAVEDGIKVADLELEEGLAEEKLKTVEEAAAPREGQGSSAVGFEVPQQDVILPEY

[7] = target: Phosphatidylinositol 3-kinase catalytic subunit type 3 (Homo sapiens, UniProt Q8NEB9); experiment: Selectivity interaction (KinomeScan (DiscoverX)) EUB0000229b PIK3C3; conditions: at 10 µM
Sequence of Phosphatidylinositol 3-kinase catalytic subunit type 3 (Q8NEB9 whole entry): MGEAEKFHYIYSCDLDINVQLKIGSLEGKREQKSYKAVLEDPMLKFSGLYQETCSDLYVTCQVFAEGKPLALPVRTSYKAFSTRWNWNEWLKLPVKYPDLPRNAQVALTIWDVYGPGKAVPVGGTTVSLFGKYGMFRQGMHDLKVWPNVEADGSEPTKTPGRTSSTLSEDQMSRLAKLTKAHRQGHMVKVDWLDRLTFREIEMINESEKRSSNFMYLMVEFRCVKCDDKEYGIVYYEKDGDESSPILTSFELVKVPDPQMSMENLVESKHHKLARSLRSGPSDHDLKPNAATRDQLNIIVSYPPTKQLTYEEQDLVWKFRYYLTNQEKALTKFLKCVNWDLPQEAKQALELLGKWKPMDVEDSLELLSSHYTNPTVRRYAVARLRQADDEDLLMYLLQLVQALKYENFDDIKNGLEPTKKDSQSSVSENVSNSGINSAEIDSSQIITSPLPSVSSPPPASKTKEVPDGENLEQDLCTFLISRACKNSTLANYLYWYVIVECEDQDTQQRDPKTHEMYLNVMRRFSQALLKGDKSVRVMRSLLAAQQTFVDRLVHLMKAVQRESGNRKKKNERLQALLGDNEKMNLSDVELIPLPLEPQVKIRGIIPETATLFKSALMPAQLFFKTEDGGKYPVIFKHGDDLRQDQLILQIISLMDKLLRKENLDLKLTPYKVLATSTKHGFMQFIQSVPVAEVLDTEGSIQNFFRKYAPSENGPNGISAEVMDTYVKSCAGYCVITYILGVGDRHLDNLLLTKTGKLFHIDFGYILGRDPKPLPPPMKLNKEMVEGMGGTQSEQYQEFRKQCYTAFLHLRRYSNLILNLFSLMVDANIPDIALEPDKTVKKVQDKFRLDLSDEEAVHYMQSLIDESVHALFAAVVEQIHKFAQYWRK

[8] = target: Angiopoietin-1 receptor (Homo sapiens) (UniProt Q02763); experiment: Selectivity interaction (KinomeScan (DiscoverX)) EUB0000618a TEK; conditions: at 10 µM
Sequence of Angiopoietin-1 receptor (Homo sapiens) (Q02763 whole entry): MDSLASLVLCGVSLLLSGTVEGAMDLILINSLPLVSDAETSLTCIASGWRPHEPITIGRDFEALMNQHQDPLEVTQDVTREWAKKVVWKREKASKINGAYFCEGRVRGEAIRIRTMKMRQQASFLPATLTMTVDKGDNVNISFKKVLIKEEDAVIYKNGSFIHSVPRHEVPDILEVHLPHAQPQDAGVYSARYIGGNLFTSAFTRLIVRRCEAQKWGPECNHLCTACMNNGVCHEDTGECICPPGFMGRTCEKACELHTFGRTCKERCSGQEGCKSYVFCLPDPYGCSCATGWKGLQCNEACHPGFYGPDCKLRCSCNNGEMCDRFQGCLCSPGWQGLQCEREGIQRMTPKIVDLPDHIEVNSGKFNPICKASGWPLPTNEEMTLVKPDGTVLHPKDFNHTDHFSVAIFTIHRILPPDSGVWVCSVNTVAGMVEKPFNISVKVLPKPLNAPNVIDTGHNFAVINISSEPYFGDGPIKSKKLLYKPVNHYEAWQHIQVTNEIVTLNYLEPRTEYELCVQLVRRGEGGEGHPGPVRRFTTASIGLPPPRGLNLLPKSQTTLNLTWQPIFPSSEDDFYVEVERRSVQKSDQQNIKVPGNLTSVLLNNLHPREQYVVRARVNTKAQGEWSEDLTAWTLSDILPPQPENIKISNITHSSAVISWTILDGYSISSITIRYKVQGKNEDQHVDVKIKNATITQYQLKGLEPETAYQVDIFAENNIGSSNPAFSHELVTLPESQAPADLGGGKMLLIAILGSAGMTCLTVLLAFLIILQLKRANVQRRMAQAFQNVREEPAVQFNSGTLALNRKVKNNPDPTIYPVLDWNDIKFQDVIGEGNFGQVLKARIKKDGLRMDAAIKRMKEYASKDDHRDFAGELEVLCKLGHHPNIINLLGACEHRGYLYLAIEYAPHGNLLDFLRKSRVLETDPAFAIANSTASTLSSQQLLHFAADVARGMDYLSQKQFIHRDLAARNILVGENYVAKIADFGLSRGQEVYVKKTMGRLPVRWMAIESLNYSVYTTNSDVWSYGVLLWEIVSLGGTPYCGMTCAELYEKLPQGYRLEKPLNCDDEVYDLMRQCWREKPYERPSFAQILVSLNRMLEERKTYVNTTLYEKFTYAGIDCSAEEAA

Sequence of Serine/threonine-protein kinase MARK1 (Homo sapiens) (Q9P0L2 whole entry, looked up): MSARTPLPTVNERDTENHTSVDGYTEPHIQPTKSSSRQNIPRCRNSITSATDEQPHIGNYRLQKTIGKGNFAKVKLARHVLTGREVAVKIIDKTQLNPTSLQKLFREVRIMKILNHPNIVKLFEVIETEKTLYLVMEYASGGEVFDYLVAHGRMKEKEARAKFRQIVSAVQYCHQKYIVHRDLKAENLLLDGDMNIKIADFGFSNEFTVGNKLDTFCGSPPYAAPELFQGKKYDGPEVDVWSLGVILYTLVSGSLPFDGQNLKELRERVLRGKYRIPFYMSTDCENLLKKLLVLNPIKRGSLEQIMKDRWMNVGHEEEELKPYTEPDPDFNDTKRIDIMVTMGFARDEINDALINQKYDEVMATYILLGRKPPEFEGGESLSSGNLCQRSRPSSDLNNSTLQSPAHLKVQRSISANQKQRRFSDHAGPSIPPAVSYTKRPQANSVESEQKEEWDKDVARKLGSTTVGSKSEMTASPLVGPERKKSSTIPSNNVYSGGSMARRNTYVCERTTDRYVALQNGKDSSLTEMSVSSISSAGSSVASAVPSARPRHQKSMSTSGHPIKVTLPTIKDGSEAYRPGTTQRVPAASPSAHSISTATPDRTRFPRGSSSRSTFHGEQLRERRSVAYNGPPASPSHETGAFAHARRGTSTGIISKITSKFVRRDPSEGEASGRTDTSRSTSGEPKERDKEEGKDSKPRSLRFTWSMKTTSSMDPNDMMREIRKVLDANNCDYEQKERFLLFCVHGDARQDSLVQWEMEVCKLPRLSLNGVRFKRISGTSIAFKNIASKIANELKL

Q: With `O=C(NOC[C@H](O)CO)c1ccc(F)c(F)c1Nc1ccc(I)cc1F` as the compound, how does the % of control [1] read?
A: 100%

Q: What about the % of control [2] of the same compound?
A: 100%

Q: For `CN(C)C/C=C/C(=O)Nc1ccc(C(=O)N2CCCC(Nc3ncc(Cl)c(-c4c[nH]c5ccccc45)n3)C2)cc1` (centres undefined), which % of control [3] is on record?
A: 81%

Q: What about the % of control [4] of the same compound?
A: 86%

Q: For `CN(C)CCOc1ccc(-c2nc(-c3ccncc3)c(-c3ccc4c(c3)CC/C4=N\O)[nH]2)cc1`, which % of control [5] is on record?
A: 100%

Q: Which % of control ([6]; at 1 µM) does the source give for `C=CC(=O)Nc1cc(-n2c(=O)ccc3cnc4ccc(-c5ccc(NS(C)(=O)=O)cc5)cc4c32)ccc1C` here?
A: 100%

Q: What about the % of control ([6]; at 10 µM) of the same compound?
A: 72%

Q: `COc1cc(N(C)c2ccnc3ccc(C(F)(F)F)cc23)cc(OC)c1OC` was tested. Which % binding [7] did it give?
A: 93%

Q: `O[C@H]1CC[C@H](Nc2ncc3nc(Nc4c(F)cc(F)cc4F)n([C@H]4CCOC4)c3n2)CC1` was tested. Which % of control [8] did it give?
A: 100%
